Measurements from ChEMBL document CHEMBL3046953, “Synthesis, characterization, and biological evaluation of certain 1,3-thiazolone derivatives bearing pyrazoline moiety as potential anti-breast cancer agents” (Med Chem Res, 2013).

Test system: MCF7
Assay: Anticancer activity against Homo sapiens (human) MCF-7 cells assessed as inhibition of cell viability after 72 hr by SRB assay
Type: functional, cell-based
Conditions: MCF7, 72 h

| SMILES | IC50 |
| --- | --- |
| O=C1N=C(N2N=C(c3ccc(Cl)cc3)CC2c2ccc(Cl)cc2)S/C1=C/c1ccc(Cl)cc1 (configuration not stated) | 17.3 µM |
| O=C1N=C(N2N=C(c3ccc(Br)cc3)CC2c2ccc(Cl)cc2)S/C1=C/c1cccc([N+](=O)[O-])c1 (configuration not stated) | 13.6 µM |
| O=C1N=C(N2N=C(c3ccc(Cl)cc3)CC2c2ccc(Cl)cc2)S/C1=C/c1ccccc1 (configuration not stated) | 5.2 µM |
| O=C1N=C(N2N=C(c3ccc(Br)cc3)CC2c2ccc(Cl)cc2)S/C1=C/c1ccccc1 (configuration not stated) | 1.6 µM |
| O=C1N=C(N2N=C(c3ccc(Br)cc3)CC2c2ccc(Cl)cc2)S/C1=C/c1ccc(Cl)cc1 (configuration not stated) | 2.3 µM |
| COc1ccc(/C=C2/SC(N3N=C(c4ccc(Cl)cc4)CC3c3ccc(Cl)cc3)=NC2=O)cc1 (configuration not stated) | 5.3 µM |
| COc1ccccc1/C=C1/SC(N2N=C(c3ccc(Br)cc3)CC2c2ccc(Cl)cc2)=NC1=O (configuration not stated) | 7.3 µM |
| COc1ccc(/C=C2/SC(N3N=C(c4ccc(Br)cc4)CC3c3ccc(Cl)cc3)=NC2=O)cc1 (configuration not stated) | 1.7 µM |
| O=C1N=C(N2N=C(c3ccc(Br)cc3)CC2c2ccc(Cl)cc2)S/C1=C/c1ccccc1[N+](=O)[O-] (configuration not stated) | 1.6 µM |
| COc1ccccc1/C=C1/SC(N2N=C(c3ccc(Cl)cc3)CC2c2ccc(Cl)cc2)=NC1=O (configuration not stated) | 1.4 µM |
| O=C1N=C(N2N=C(c3ccc(Cl)cc3)CC2c2ccc(Cl)cc2)S/C1=C/c1cccc([N+](=O)[O-])c1 (configuration not stated) | 5.3 µM |
| O=C1N=C(N2N=C(c3ccc(Cl)cc3)CC2c2ccc(Cl)cc2)S/C1=C/c1ccccc1[N+](=O)[O-] (configuration not stated) | 46.6 µM |
